{"source": "patent US20210324359A1", "about": "“USE OF GRAM-NEGATIVE LYSIN-ANTIMICROBIAL PEPTIDE (AMP) POLYPEPTIDE CONSTRUCTS IN TREATING ENDOCARDITIS” (priority 2020, published 2021)", "key": {"[1]": {"tested_on": "P. aeruginosa isolates", "experiment": "MIC against a range of isolates in CAA + […] human serum (Table 11)", "type": "cell-based, Pseudomonas aeruginosa", "settings": "Pseudomonas aeruginosa"}, "[2]": {"tested_on": "carbapenem-resistant P. aeruginosa strains", "experiment": "Resensitization of carbapenem-resistant strains, combinations with imipenem or meropenem (Tables 18-22)", "type": "cell-based, Pseudomonas aeruginosa", "settings": "for MIC: Pseudomonas aeruginosa"}, "[3]": {"tested_on": "P. aeruginosa PA20 recovered from rabbit lung homogenates", "type": "cell-based, Pseudomonas aeruginosa", "settings": "n=48"}, "[4]": {"tested_on": "P. aeruginosa (PA20)", "experiment": "Rabbit infective endocarditis model (Tables 28-32, FIGS. 5-8)", "type": "in vivo, Pseudomonas aeruginosa in rabbits", "settings": "Meropenem 5 mg/kg", "description": "Initially, a polyethylene catheter was placed into the rabbits' right ventricle and secured. 48 hours after catheter placement, rabbits were infected intravenously with P. aeruginosa (PA20) (6×10^9 CFU/mL). Treatment commenced 24 hours post-infection.\nData were analyzed using the Kruskal-Wallis method for multiple comparison and then adjusted with a false discovery rate approach (Benjamini-Hochberg method), using StatsDirect Software. A p-value of <0.05 was considered statistically significant."}, "[5]": {"settings": "in combination with GN123, isolate PA19"}, "[6]": {"settings": "in combination with GN123, isolate PA20"}, "[7]": {"settings": "in combination with GN123, isolate PA21"}, "[8]": {"settings": "in combination with GN123, isolate PA22"}, "[9]": {"settings": "in combination with GN123, isolate PA23"}, "[10]": {"settings": "in combination with GN123, isolate PA24"}, "[11]": {"settings": "in combination with GN123, isolate WC-452"}}, "note": "Where two headings read alike, the source gives them in different places.", "data": [{"molecule": "C[C@@H](O)[C@H]1C(=O)N2C(C(=O)O)=C(S[C@@H]3CN[C@H](C(=O)N(C)C)C3)[C@H](C)[C@H]12", "note": "[Meropenem, meropenem, reference compound]", "values": [{"measurement": "MIC", "setting": "[1]; ATCC17646, read-out: Meropenem MIC, strain CFS 1109 (ATCC 17646)", "result": 0.5, "unit": "µg/mL"}, {"measurement": "MIC", "setting": "[1]; ATCC27853, read-out: Meropenem MIC, strain CFS 1766 (ATCC 27853)", "result": 1, "unit": "µg/mL"}, {"measurement": "MIC", "setting": "[1]; PA1, read-out: Meropenem MIC, strain CFS1539 (PA1)", "result": 16, "unit": "µg/mL"}, {"measurement": "MIC", "setting": "[1]; read-out: Meropenem MIC, strain CFS 1292", "result": 32, "unit": "µg/mL"}, {"measurement": "MIC", "setting": "[1]; read-out: Meropenem MIC, strain CFS 1540 (PA2)", "result": 16, "unit": "µg/mL"}, {"measurement": "MIC", "setting": "[1]; read-out: Meropenem MIC, strain CFS 1541 (PA3)", "result": 8, "unit": "µg/mL"}, {"measurement": "MIC", "setting": "[1]; read-out: Meropenem MIC, strain CFS 1557 (PA19)", "result": 32, "unit": "µg/mL"}, {"measurement": "MIC", "setting": "[1]; read-out: Meropenem MIC, strain CFS 1558 (PA20)", "result": 16, "unit": "µg/mL"}, {"measurement": "MIC", "setting": "[1]; read-out: Meropenem MIC, strain CFS 1559 (PA21)", "result": "> 32", "unit": "µg/mL"}, {"measurement": "MIC", "setting": "[1]; read-out: Meropenem MIC, strain CFS 1560 (PA22)", "result": 16, "unit": "µg/mL"}, {"measurement": "MIC", "setting": "[1]; read-out: Meropenem MIC, strain CFS 1561 (PA23)", "result": 16, "unit": "µg/mL"}, {"measurement": "MIC", "setting": "[1]; read-out: Meropenem MIC, strain CFS 1562 (PA24)", "result": "> 32", "unit": "µg/mL"}, {"measurement": "MIC", "setting": "[1]; read-out: Meropenem MIC, strain CFS 1596 (PA26)", "result": 0.5, "unit": "µg/mL"}, {"measurement": "MIC", "setting": "[1]; read-out: Meropenem MIC, strain CFS 1597 (PA27)", "result": 1, "unit": "µg/mL"}, {"measurement": "MIC", "setting": "[1]; read-out: Meropenem MIC, strain CFS 1669 (PA41)", "result": "< 0.25", "unit": "µg/mL"}, {"measurement": "MIC", "setting": "[1]; read-out: Meropenem MIC, strain CFS 1674 (PA46)", "result": 4, "unit": "µg/mL"}, {"measurement": "MIC", "setting": "[1]; read-out: Meropenem MIC, strain CFS 1675 (PA47)", "result": 4, "unit": "µg/mL"}, {"measurement": "MIC", "setting": "[2]; isolate PA19", "result": 32, "unit": "µg/mL"}, {"measurement": "MIC", "setting": "[2]; isolate PA20", "result": 16, "unit": "µg/mL"}, {"measurement": "MIC", "setting": "[2]; isolate PA21", "result": 32, "unit": "µg/mL"}, {"measurement": "MIC", "setting": "[2]; isolate PA22", "result": 16, "unit": "µg/mL"}, {"measurement": "MIC", "setting": "[2]; isolate PA23", "result": 16, "unit": "µg/mL"}, {"measurement": "MIC", "setting": "[2]; isolate PA24", "result": 32, "unit": "µg/mL"}, {"measurement": "MIC", "setting": "[2]; isolate WC-452", "result": 16, "unit": "µg/mL"}, {"measurement": "antibiotic MIC, Combination", "setting": "[2]; in combination with GN121, isolate PA19", "result": 1, "unit": "µg/mL"}, {"measurement": "antibiotic MIC, Combination", "setting": "[2]; in combination with GN121, isolate PA20", "result": 1, "unit": "µg/mL"}, {"measurement": "antibiotic MIC, Combination", "setting": "[2]; in combination with GN121, isolate PA21", "result": 2, "unit": "µg/mL"}, {"measurement": "antibiotic MIC, Combination", "setting": "[2]; in combination with GN121, isolate PA22", "result": 1, "unit": "µg/mL"}, {"measurement": "antibiotic MIC, Combination", "setting": "[2]; in combination with GN121, isolate PA23", "result": 2, "unit": "µg/mL"}, {"measurement": "antibiotic MIC, Combination", "setting": "[2]; in combination with GN121, isolate PA24", "result": 1, "unit": "µg/mL"}, {"measurement": "antibiotic MIC, Combination", "setting": "[2]; in combination with GN121, isolate WC-452", "result": 1, "unit": "µg/mL"}, {"measurement": "antibiotic MIC, Combination", "setting": "[2]; [5]", "result": 0.5, "unit": "µg/mL"}, {"measurement": "carbapenem susceptibility class, Combination", "setting": "[2]; [5]", "result": "(S) ((S) = sensitive)"}, {"measurement": "antibiotic MIC, Combination", "setting": "[2]; [6]", "result": 0.5, "unit": "µg/mL"}, {"measurement": "carbapenem susceptibility class, Combination", "setting": "[2]; [6]", "result": "(S) ((S) = sensitive)"}, {"measurement": "antibiotic MIC, Combination", "setting": "[2]; [7]", "result": 1, "unit": "µg/mL"}, {"measurement": "carbapenem susceptibility class, Combination", "setting": "[2]; [7]", "result": "(S) ((S) = sensitive)"}, {"measurement": "antibiotic MIC, Combination", "setting": "[2]; [8]", "result": 1, "unit": "µg/mL"}, {"measurement": "carbapenem susceptibility class, Combination", "setting": "[2]; [8]", "result": "(S) ((S) = sensitive)"}, {"measurement": "antibiotic MIC, Combination", "setting": "[2]; [9]", "result": 0.5, "unit": "µg/mL"}, {"measurement": "carbapenem susceptibility class, Combination", "setting": "[2]; [9]", "result": "(S) ((S) = sensitive)"}, {"measurement": "antibiotic MIC, Combination", "setting": "[2]; [10]", "result": 2, "unit": "µg/mL"}, {"measurement": "carbapenem susceptibility class, Combination", "setting": "[2]; [10]", "result": "(S) ((S) = sensitive)"}, {"measurement": "antibiotic MIC, Combination", "setting": "[2]; [11]", "result": 1, "unit": "µg/mL"}, {"measurement": "carbapenem susceptibility class, Combination", "setting": "[2]; [11]", "result": "(S) ((S) = sensitive)"}, {"measurement": "carbapenem susceptibility class, Combination", "setting": "[2]; in combination with GN351, vs. WC-452", "result": "(S) ((S) = sensitive)"}, {"measurement": "carbapenem susceptibility class, Combination", "setting": "[2]; in combination with GN370, vs. WC-452", "result": "(S) ((S) = sensitive)"}, {"measurement": "carbapenem susceptibility class, Combination", "setting": "[2]; in combination with GN428, vs. WC-452", "result": "(S) ((S) = sensitive)"}, {"measurement": "carbapenem susceptibility class, antibiotic Alone", "setting": "[2]; isolate PA19", "result": "R ((R) = resistant)"}, {"measurement": "carbapenem susceptibility class, antibiotic Alone", "setting": "[2]; isolate PA20", "result": "R ((R) = resistant)"}, {"measurement": "carbapenem susceptibility class, antibiotic Alone", "setting": "[2]; isolate PA21", "result": "R ((R) = resistant)"}, {"measurement": "carbapenem susceptibility class, antibiotic Alone", "setting": "[2]; isolate PA22", "result": "R ((R) = resistant)"}, {"measurement": "carbapenem susceptibility class, antibiotic Alone", "setting": "[2]; isolate PA23", "result": "R ((R) = resistant)"}, {"measurement": "carbapenem susceptibility class, antibiotic Alone", "setting": "[2]; isolate PA24", "result": "R ((R) = resistant)"}, {"measurement": "carbapenem susceptibility class, antibiotic Alone", "setting": "[2]; isolate WC-452", "result": "R ((R) = resistant)"}, {"measurement": "Antibiotic MIC / Lysin MIC, Alone", "setting": "[2]; vs. WC-452 (Table 22)", "result": 16}, {"measurement": "number of isolates with Meropenem MIC […] μg/mL", "setting": "[3]; isolates from GN370 (3 mg/kg) + Meropenem (20 mg/kg) group", "result": 48}, {"measurement": "number of isolates with Meropenem MIC […] μg/mL", "setting": "[3]; isolates from GN370 (3 mg/kg) group", "result": 48}, {"measurement": "number of isolates with Meropenem MIC […] μg/mL", "setting": "[3]; isolates from GN370 (10 mg/kg) + Meropenem (20 mg/kg) group", "result": 48}, {"measurement": "number of isolates with Meropenem MIC […] μg/mL", "setting": "[3]; isolates from GN370 (10 mg/kg) group", "result": 48}, {"measurement": "number of isolates with Meropenem MIC […] μg/mL", "setting": "[3]; isolates from GN370 (30 mg/kg) + Meropenem (20 mg/kg) group", "result": 48}, {"measurement": "number of isolates with Meropenem MIC […] μg/mL", "setting": "[3]; isolates from GN370 (30 mg/kg) group", "result": 48}, {"measurement": "number of isolates with Meropenem MIC […] μg/mL", "setting": "[3]; isolates from Meropenem (20 mg/kg) group", "result": 48}, {"measurement": "number of isolates with Meropenem MIC […] μg/mL", "setting": "[3]; isolates from Pre-treatment control group", "result": 48}, {"measurement": "number of isolates with Meropenem MIC […] μg/mL", "setting": "[3]; isolates from Vehicle control group", "result": 48}, {"measurement": "Bacterial burden, Mean", "setting": "[4]; cardiac vegetation", "result": 7.22, "unit": "log10 CFU/g"}, {"measurement": "Mean log10 CFU change v. 24 hr control", "setting": "[4]; cardiac vegetation", "result": "−0.68", "unit": "log10 CFU"}, {"measurement": "Mean log10 CFU change v. vehicle", "setting": "[4]; cardiac vegetation", "result": "−0.13", "unit": "log10 CFU"}, {"measurement": "Bacterial burden, Mean", "setting": "[4]; kidney tissue", "result": 4.64, "unit": "log10 CFU/g"}, {"measurement": "Mean log10 CFU change v. 24 hr control", "setting": "[4]; kidney tissue", "result": "−1.32", "unit": "log10 CFU"}, {"measurement": "Mean log10 CFU change v. vehicle", "setting": "[4]; kidney tissue", "result": "−0.55", "unit": "log10 CFU"}, {"measurement": "Bacterial burden, Mean", "setting": "[4]; lung tissue", "result": 3.75, "unit": "log10 CFU/g"}, {"measurement": "Mean log10 CFU change v. 24 hr control", "setting": "[4]; lung tissue", "result": "−1.41", "unit": "log10 CFU"}, {"measurement": "Mean log10 CFU change v. vehicle", "setting": "[4]; lung tissue", "result": "−1.25", "unit": "log10 CFU"}, {"measurement": "Bacterial burden, Mean", "setting": "[4]; spleen tissue", "result": 3.95, "unit": "log10 CFU/g"}, {"measurement": "Mean log10 CFU change v. 24 hr control", "setting": "[4]; spleen tissue", "result": "−1.00", "unit": "log10 CFU"}, {"measurement": "Mean log10 CFU change v. vehicle", "setting": "[4]; spleen tissue", "result": "−1.62", "unit": "log10 CFU"}]}]}
